Here are results for 1 substance from paper PMC7661967, “Magnetic Resonance Molecular Imaging of Extradomain B Fibronectin Improves Imaging of Pancreatic Cancer Tumor Xenografts” (Frontiers in Oncology, 2020).

No end group written: not given here.

Data set [1] can be described thus: T1 and T2 relaxivity measurement at 3T. The class given is physicochemical. How it is done: The T1 and T2 values of MT218 and Gd(HP-DO3A) solutions were determined using a 3T MRS 3000 scanner (MR Solutions, Guildford, UK). Solutions of MT218 were prepared at concentrations of 0, 0.25, 0.5, 1, and 2 mM in DPBS buffer (Gibco, Gaithersburg, MD). T1 values were measured using an inversion recovery-fast low angle shot (IR-FLASH) sequence (τ = 10 ms, TE = 4 ms, FA = 8°, echoes/frames = 128, FOV = 40 mm × 40 mm, slice thickness = 2 mm, number of averages = 1, time delay = 4,000 ms, sample period = 200, matrix = 256 × 128). T2 values were obtained using a multi-echo multi-slice (MEMS) sequence (TE = 15 ms, […], echoes = 10, FOV: 40 mm × 40 mm, slice thickness = 1 mm, number of averages = 1, matrix = 256 × 192). The r1 and r2 relaxivities were calculated from the slopes of 1/T1 and 1/T2 vs. Gd concentration plots, respectively.

In data set [2] the test system is Capan-1 flank tumor xenografts. The data set can be described thus: MRMI of Capan-1 flank tumor xenografts (7T). The format is in vivo, human cells in female nu/nu mice. How it is done: (§1) For flank xenograft models, 4 × 10^6 Capan-1 cells suspended in 100 μL of a 6 mg/mL Matrigel (Corning, Corning, NY) solution was injected subcutaneously into the flank of 8-week-old female nu/nu mice. The tumor bearing mice were imaged after tumor volumes exceeded 300 mm^3. For orthotopic intrapancreatic models, the pancreas of 4-week-old female nu/nu mice were surgically exposed via a ~10 mm incision in the left ventral abdomen and the application of gentle pressure to express the spleen and associated pancreatic tissue. 1 × 10^6 BxPC3-GFP-Luc or PANC-1-GFP-Luc cells suspended in 100 μL of a Matrigel solution (6 mg/mL) was injected into the pancreatic tissue using an insulin syringe with a 31G needle. Any leakage of cell suspension was lavaged with DPBS twice to prevent intraabdominal seeding PaCa cells. The peritoneal fascia was closed with absorbable stitches, and the dermis closed with stainless steel wound clips. Prior to imaging, growth of tumor was verified by bioluminescence imaging with intraperitoneal injection of d-luciferin on IVIS Spectrum system (Perkin Elmer, Waltham, MA).
(§2) Flank tumor-bearing mice were anesthetized and a tail vein catheter inserted. MR image acquisition was performed on a 7T Biospin (Bruker, Billerica, MA) preclinical small animal scanner with a volume radiofrequency coil. Axial images were obtained using a multi-spin multi-echo (MSME) MRI sequence (500 ms TR, 8.1 ms TE, 90° FA, 4.50 cm × 4.50 cm FOV, 1.50 mm slice thickness, 16 slices, 2 averages, 200 × 200 matrix, 0.0225 × 0.0225 cm/pixel resolution). Contrast agents were injected at a dose of 0.1 mmol/kg (100 μL) via the tail vein catheter, followed by a saline flush. Images of the tumors were acquired before contrast and at various time points after contrast administration. Gd(HP-DO3A) was used as a control.
(§3) Image files were exported and analyzed in Horus software. ROIs were drawn in the tumor, liver, kidney, and muscle. Muscle ROIs were taken from the muscle, with other structures (liver, kidney, tumor) identified after comparison with published images and comparison with anatomical landmarks or bioluminescent imaging. Pancreatic lesions were localized using the liver, kidney, and spleen as anatomical landmarks. […] Size of ROIs drawn for image analysis are summarized in Supplementary Table 1. The contrast-to-noise ratio of the tumor (CNR) was calculated using the following equation, where σnoise is the standard deviation of intensities from an ROI drawn outside of the mouse body:
(§4) CNR=Mean IntensityTumor-Mean IntensityMuscle/σnoise.
(§5) Image subtraction was performed on images adjusted to the same window and level in FIJI open-source software.
(§6) Image contrast was reported as fold enhancement of contrast to noise ratio of post-contrast images over pre-contrast images using Fold Enhancement = CNRpost/CNRpre. Statistical analysis of CNR was performed in Minitab Express (Minitab Inc., State College, PA). One-way ANOVA with Fisher Individual Tests for Differences of Means post-hoc testing was performed to determine statistical significance between >2 means (p < 0.05). Student's T test was used to determine statistical significance between 2 means (p < 0.05).
(In general: In xenograft studies the graft and the host belong to different species.)

For data set [3], the system named is PANC-1-GFP-Luc intrapancreatic tumor xenografts. The data set can be described thus: MRMI of PANC-1-GFP-Luc intrapancreatic tumor xenografts (3T). The format is in vivo, human cells in female nu/nu mice. How it is done: as §1
(§7) Mice bearing intrapancreatic tumors were anesthetized and a tail vein catheter was inserted. Image acquisition was performed on a MR Solutions 3T MRS 3000 scanner with a mouse radiofrequency coil. Axial images were obtained using a Fast Spin Echo (FSE) MRI sequence (305 ms TR, 11 ms TE, 90° FA, 4 cm × 4 cm FOV, 1 mm slice thickness, 10 slices, echo train length = 4, echo spacing = 11 ms, 4 averages, 256 × 256 matrix, 0.0156 × […] cm/pixel resolution) with respiratory gating. Images were acquired before contrast and at different time points after contrast injection at a dose of 0.1 mmol/kg (100 μL). For competitive binding experiments, a 5:1 molar ratio of free ZD2 peptide to MT218 was injected in mice bearing intrapancreatic BxPC3 tumor xenografts (n = 3) at a dose of 0.1 mmol MT218/kg (100 μL). Images obtained on the MR Solutions 3T scanner were normalized using the Surscalereader.exe (MR Solutions, Guildford, UK) program supplied.
as §3, §4, §5, §6

Data set [4] in a line: Liver CNR in contrast-enhanced MRI. The format is in vivo, nu/nu mice. The following applies: for liver CNR, MT218 vs Gd(HP-DO3A): 0.1 mmol/kg, p > 0.05. How it is done:
as §2, §7
Image files were exported and analyzed in Horus software. ROIs were drawn in the tumor, liver, kidney, and muscle. […] The contrast-to-noise ratio of the tumor (CNR) was calculated using the following equation, where σnoise is the standard deviation of intensities from an ROI drawn outside of the mouse body:
The contrast to noise ratio of the liver (CNR) was calculated using the following equation: […]

For data set [5] the following is noted: cited from earlier work. From the text: (§8) ZD2 targeted MRI contrast agents have been developed and tested for MRMI of EDB-FN in aggressive breast cancer and prostate cancer models ([15], [16], [20]). The targeted contrast agent ZD2-N3-Gd(HP-DO3A) (MT218) was developed by conjugating ZD2 peptide to a clinical macrocyclic contrast agent Gd(HP-DO3A) ([16], [20]). […] The ...

The test system of data set [6] is aggressive breast and prostate cancers. The settings on record: cited from earlier work.
Excerpt: as §8

The mark [7] stands for this setting: 0.1 mmol/kg, 10 min post-injection, n = 6.

For the substance “ZD2-N3-Gd(HP-DO3A) (TVRTSAD; also: conjugated via N3 to Gd(HP-DO3A) contrast agent, end not given here) [MT218, small molecular conjugate of ZD2 peptide to a macrocyclic clinical MRI contrast agent Gd(HP-DO3A)]”, in data set [1] (0-2 mM MT218 in DPBS buffer, IR-FLASH), the “T1 relaxivity (r1)” value is 6.07 ± 1.13 s⁻¹ mM⁻¹. Also, in data set [1] (0-2 mM MT218 in DPBS buffer, MEMS), the “T2 relaxivity (r2)” value is 8.20 ± 0.18 s⁻¹ mM⁻¹. For the same substance, the “T1 relaxivity relative to Gd(HP-DO3A)” value in data set [1] (targeted agent vs corresponding clinical agent) is ~2 fold. Also, the “contrast enhancement in tumor periphery” value in data set [2] (0.1 mmol/kg, 5 min post-injection, MT218 vs Gd(HP-DO3A)) is listed as “Stronger contrast enhancement”. The “maximum increase of tumor CNR (post/pre)” value in data set [2] (0.1 mmol/kg, 15 min post-injection, MT218 n = 7) was determined as 4.8 fold. Further, the “contrast enhancement in tumor core” value in data set [2] (0.1 mmol/kg, after injection) was “gradually increased”. Further, the “enhancement in tumor periphery, subtraction images” value in data set [2] (0.1 mmol/kg, early time points (5–15 min post-contrast)) is “strong initial enhancement”. The “contrast enhancement throughout tumors, subtraction images” value in data set [2] (0.1 mmol/kg, later time points (25–35 min) for MT218, all time points for Gd(HP-DO3A)) is “robust tumor contrast enhancement throughout the tumors”. For the same substance, the “duration for which CNR increase maintained” value in data set [2] (0.1 mmol/kg, post-injection) is reported as “at least 35 min”. Further, the “MT218 CNR relative to Gd(HP-DO3A) control” value in data set [2] (Capan-1 flank, control Gd(HP-DO3A), p < 0.05) worked out at 273%. Besides, the “CNR relative to clinical agent” value in data set [2] (Capan-1 flank, vs Gd(HP-DO3A), p < 0.05) worked out at 2.7 times. Moreover, in data set [3] (setting [7]), the “intratumoral CNR increase (post/pre)” value was “approximately 3.9 fold”; the tumor contrast enhancement entry is given as “substantial contrast enhancement”; the “tumor signal enhancement, subtraction images” value is listed as “substantial signal enhancement”. In data set [3] (PANC-1-GFP-Luc intrapancreatic, control Gd(HP-DO3A), p < 0.05), the “MT218 CNR as percent of Gd(HP-DO3A) control” value is recorded as 164%. Also, the “CNR relative to clinical agent” value in data set [3] (PANC-1-GFP-Luc intrapancreatic, vs Gd(HP-DO3A), p < 0.05) is 1.6 times. Also, the “liver CNR, MT218 vs Gd(HP-DO3A)” value in data set [4] (BxPC3-GFP-Luc and PANC-1-GFP-Luc intrapancreatic models) is “No difference in CNR”. The “liver CNR, MT218 vs Gd(HP-DO3A)” value in data set [4] (Capan-1 flank model) is on record as “No significant difference in CNR”. For the same substance, the “non-specific signal enhancement in hepatic tissue” value in data set [4] (MRMI with MT218) is given as “Minimal non-specific signal enhancement”. Further, in data set [5], the “T1 relaxivity compared with Gd(HP-DO3A), in words” value is “higher T1 relaxivity than Gd(HP-DO3A)”. Besides, the contrast enhancement result in data set [6] is given as “superior contrast enhancement”.
